Measured values as given in patent publication US20240043470A1, “MACROCYCLIC COMPOUNDS AS PROTEASOME INHIBITORS” (CORNELL UNIVERSITY, priority 2017, published 2024).
Like-named read-outs stand apart in the source and are kept apart here. One block for each molecule: values may come before it.

Columns and labels:
[1] = amide bond, 16-membered ring, EDCI/HOBt/DIEA, DMF
[2] = rcm bond, 16-membered ring, Grubbs II
[3] = system: IL-6 in LPS-stimulated human macrophages; experiment: Inhibition of IL-6 in LPS-stimulated human macrophages (Q-PCR and ELISA); format: cell-based; conditions: LPS 50 ng/ml; 6 h gene expression (FIG. 1A), 24 h ELISA (FIG. 1B); compound added 15 minutes before LPS
Description: Monocytes were isolated from the blood of 2 healthy donors using CD14 magnetic beads and cultured with 20 ng/ml of MCSF for 24 hours to induce the differentiation into macrophages. 200,000 cells/wells in 96 wells plate were incubated with LPS (50 ng/ml) for 6 hours for RNA isolation and gene expression analysis (FIG. 1A) and 24 hours for ELISA (FIG. 1B). The proteasome inhibitor 4-13 used at the indicated concentration was added 15 minutes before adding LPS. At 6 hours, RNA were prepared using Qiagen RNA plus kit and cDNA were synthetized using the Thermofisher cDNA synthesis kit (FIG. 1A). Q-PCR was performed in duplicate and expression levels normalized to the level of the housekeeping gene ubiquitin. At 24 hours, supernatants were collected and IL-6 production quantified by ELISA (FIG. 1B).

β5c of hu c-20S = β5c of hu c-20S (Homo sapiens (Human), UniProt P20618+P28074); experiment: IC50 determination against β5c of human constitutive proteasome (suc-LLVY-AMC hydrolysis); format: biochemical; conditions: 0.2 nM c-20S, 25 μM suc-LLVY-AMC;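 note: IC50 obtained by fitting initial reaction velocities to a dose-dependent inhibition model, with SDS present as proteasome activator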
β5i of hu i-20S = β5i of hu i-20S (Homo sapiens (Human), UniProt P20618+P28062); experiment: IC50 determination against β5i of human immunoproteasome (Ac-ANW-AMC hydrolysis); format: biochemical; conditions: β5i, 0.4 nM i-20S, 15 μM Ac-ANW-AMC;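 note: enzyme activity taken as the initial reaction velocity per well, with SDS added to activate the proteasome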
[4] = from C=CCCCCC[C@H](NC(=O)[C@H](CC(=O)N1CCCC1)NC(=O)CCCC=C)C(=O)NCc1cccc2ccccc12; rcm bond; Grubbs 2nd Generation catalyst; CH2Cl2; 1.11 mM; 50.0 °C; 20.0 h

Molecule: (5S,8S,11S)-6-Methyl-7,10-dioxo-11-(2-oxopyrrolidin-1-yl)-8-phenethyl-N-(2,2,2-trifluoroethyl)-2-oxa-6,9-diaza-1,3(1,3)-dibenzenacyclododecaphane-5-carboxamide
ring closure, yield after HPLC ([1]; 18.3 mM, 25.0 °C): 26%

Molecule: Ac-Gly(allyl)-hPhe-Phe(3-OAllyl)-NHCH2CF3?
ring closure, isolated yield ([2]; the molecule shown is the open-chain precursor, DCM, 24.9 mM, 40.0 °C): 88.8%

IC50 (β5c of hu c-20S): 0.274 µM
IC50 (β5i of hu i-20S): 0.018 µM
Molecule: O=C1CCCCCCCCCC[C@@H](C(=O)NCc2ccccc2F)NC(=O)[C@H](CC(=O)N2CCCC2C2CC2)N1 (stereo partly shown) [Compound 4-13]
Inhibition of IL-6 in LPS-stimulated human macrophages [3]: inhibition of IL-6

IC50 (β5c of hu c-20S): > 100 µM
IC50 (β5i of hu i-20S): 4.36 µM
Molecule: O=C1CCC/C=C\CCCCC[C@@H](C(=O)NCc2cccc3ccccc23)NC(=O)[C@H](CC(=O)N2CCCC2)N1 [Compound 4-05, (2S,5S,11Z)—N-(1-Naphthylmethyl)-3,16-dioxo-2-(2-oxo-2-pyrrolidin-1-yl-ethyl)-1,4-diazacyclohexadec-11-ene-5-carboxamide]
ring closure, isolated yield ([2]; from (hex-5-enoyl)-Asp(pyrrolidin-1-yl amide)-((2S)-2-aminonon-8-enoic acid)-NHCH2(1-naphthyl)?, CH2Cl2, 1.11 mM, 50.0 °C): 36%
ring closure, yield of all isomers [4]: 36%

Molecule: (5S,8S,11S)-7,10-Dioxo-11-(2-oxopyrrolidin-1-yl)-8-(2-(piperidin-1-yl)ethyl)-N-(2,2,2-trifluoroethyl)-2-oxa-6,9-diaza-1,3(1,3)-dibenzenacyclododecaphane-5-carboxamide
ring closure, yield after HPLC ([1]; 15.8 mM, 20.0 °C): 24.2%

Molecule: (7S,10S,13S,E)-13-Acetamido-9,12-dioxo-10-phenethyl-N-(2,2,2-trifluoroethyl)-2-oxa-8,11-diaza-1(1,3)-benzenacyclotetradecaphan-4-ene-7-carboxamide
ring closure, isolated yield ([2]; DCM, 5.3 mM, 40.0 °C): 47%

Molecule: (hex-5-enoyl)-Asp(OBn)-((2S)-2-aminonon-8-enoic acid)-OtBu?
ring closure, isolated yield ([2]; the molecule shown is the open-chain precursor, toluene, 1.27 mM, 40.0 °C): 92.6%

Molecule: (2-benzylhex-5-enoyl)-Asp(OBn)-(2-aminonon-8-enoic acid)-OMe?
ring closure, isolated yield ([2]; the molecule shown is the open-chain precursor, DCE, […], 50.0 °C): 53%
